{"source": "paper PMC8073719", "about": "“Biochemical and Biophysical Characterization of Recombinant Human 3-Phosphoglycerate Dehydrogenase” (International Journal of Molecular Sciences, 2021)", "key": {"hPHGDH [1]": {"molecular_target": "T1, hPHGDH (Homo sapiens, UniProt O43175)", "T1 sequence (O43175 1-533)": "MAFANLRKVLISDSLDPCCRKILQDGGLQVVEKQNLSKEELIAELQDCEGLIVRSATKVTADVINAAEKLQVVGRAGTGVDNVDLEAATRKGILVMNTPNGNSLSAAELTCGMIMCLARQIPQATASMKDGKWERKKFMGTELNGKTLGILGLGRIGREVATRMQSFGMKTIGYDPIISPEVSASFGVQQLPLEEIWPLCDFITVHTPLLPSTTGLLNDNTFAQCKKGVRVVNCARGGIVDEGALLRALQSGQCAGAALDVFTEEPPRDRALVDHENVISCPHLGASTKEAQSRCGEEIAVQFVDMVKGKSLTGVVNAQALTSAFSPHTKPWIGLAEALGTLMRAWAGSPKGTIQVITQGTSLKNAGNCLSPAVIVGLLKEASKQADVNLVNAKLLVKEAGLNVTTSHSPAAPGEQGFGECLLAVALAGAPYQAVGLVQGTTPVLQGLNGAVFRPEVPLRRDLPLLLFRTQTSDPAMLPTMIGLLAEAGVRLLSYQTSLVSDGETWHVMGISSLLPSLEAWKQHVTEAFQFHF", "test": "hPHGDH forward reaction kinetics (PSAT-coupled or hydrazine assay, NADH fluorescence)", "type": "biochemical", "set-up": "His-tagged full-length hPHGDH was expressed in BL21(DE3) E. coli cells; made in house; host or cells: E. coli BL21(DE3)", "method": "PSAT was added to drive the reaction and to avoid product inhibition of hPHGDH.\n(§1) The latter assay was used to determine the apparent kinetic parameters on alternative substrates."}, "hPHGDH [2]": {"molecular_target": "T1, hPHGDH", "test": "Effect of salts, phosphate and serine synthesis metabolites on hPHGDH activity (hydrazine assay)", "type": "biochemical", "set-up": "His-tagged full-length hPHGDH was expressed in BL21(DE3) E. coli cells; made in house; host or cells: E. coli BL21(DE3)", "conditions": "for decrease of hPHGDH activity: […] 3PG", "text": "The effects of KCl, NaCl, MgCl2 and CaCl2 and of pH and temperature on enzyme activity and stability were investigated using the hydrazine assay. […] The dependence of activity on pH was fitted using an equation for three pKa values, according to [44], providing apparent values unrelated to microscopic ones."}, "hPHGDH [3]": {"molecular_target": "T1, hPHGDH", "set-up": "His-tagged full-length hPHGDH was expressed in BL21(DE3) E. coli cells; made in house; host or cells: E. coli BL21(DE3)", "conditions": "cited from earlier work"}, "hPHGDH [4]": {"molecular_target": "T1, hPHGDH", "test": "Limited proteolysis with trypsin, SDS-PAGE", "set-up": "His-tagged full-length hPHGDH was expressed in BL21(DE3) E. coli cells; made in house; host or cells: E. coli BL21(DE3)", "conditions": "5% (w/w) trypsin; 250 mM potassium phosphate, 500 mM sodium tartrate or 0.1 mM NCT-503", "method": "hPHGDH at 0.4 mg/mL was incubated at 25 °C in 50 mM Hepes pH 7.5, 100 mM NaCl, 10% (v/v) glycerol, 1 mM EDTA and 5 mM 2-mercaptoethanol in the presence of 5% (w/w) trypsin (Roche, Basel, Switzerland). […] At different times (0, 30, 60, 120 and 240 min), 8 µg of protein was diluted in SDS-sample buffer, heated at 95 °C for 5 min and analyzed by SDS-PAGE."}, "hPHGDH [5]": {"molecular_target": "T1, hPHGDH", "test": "Inhibition of hPHGDH activity by inhibitors (hydrazine assay)", "type": "biochemical", "set-up": "His-tagged full-length hPHGDH was expressed in BL21(DE3) E. coli cells; made in house; host or cells: E. coli BL21(DE3)", "conditions": "kinetics on 3PG at increasing inhibitor concentration"}, "E. coli PHGDH": {"test_system": "E. coli PHGDH", "conditions": "reverse reaction; cited from earlier work"}, "hPHGDH [6]": {"molecular_target": "T1, hPHGDH", "test": "hPHGDH reverse reaction kinetics (decrease in NADH fluorescence at 450 nm)", "conditions": "reverse reaction, 5 mM NADH", "text": "as §1"}, "hPHGDH [7]": {"molecular_target": "T1, hPHGDH", "test": "Ligand binding by quenching of protein fluorescence at 330 nm", "experimental": "Protein fluorescence spectra were measured at 0.06–0.1 mg/mL protein concentration in 10 mM potassium phosphate, pH 7.0, 15 °C; spectra were recorded using a Jasco FP-750 instrument and were corrected for the buffer contribution. Protein fluorescence spectra were recorded between 300 and 450 nm, with excitation at 280 and 298 nm.\nAll recorded spectra were subtracted for the contribution of the ligand (added to the buffer only) and were corrected for dilution at every addition. […] In all cases, Kd values were determined by fitting the data to a hyperbolic function."}, "hPHGDH [8]": {"molecular_target": "T1, hPHGDH", "test": "Temperature-ramp unfolding (melting temperature) with cofactors", "type": "binding", "set-up": "His-tagged full-length hPHGDH was expressed in BL21(DE3) E. coli cells; made in house; host or cells: E. coli BL21(DE3)", "experimental": "Temperature-ramp experiments were performed in 10 mM potassium phosphate, pH 7.0. For this, a software-driven, Peltier-equipped fluorimeter was used to measure the protein fluorescence change at 330 nm or a CD spectropolarimeter to follow the CD signal at 280 nm in order to reproduce a temperature gradient (0.5 °C/min) [31]."}, "[9]": {"conditions": "substrate varied, […] NAD+, hydrazine assay, Figure S3B,D-F"}}, "note": "Several values for one entry are separate records, joined by “and”; a condition that tells them apart may be missing. Identical values can stand only once. Entries after “also recorded” stand apart in the source; their conditions may differ. Like-named read-outs stand apart in the source and are kept apart here.", "data": [{"smiles": "CC(O)CC(=O)O", "note": "[D-3-Hydroxybutyrate]", "values": [{"measurement": "maximal rate of Michaelis–Menten fit", "setting": "hPHGDH [1]; [9]", "result": 2.527}]}, {"smiles": "[Cl-].[Na+]", "note": "[NaCl]", "values": [{"measurement": "initial activity lost", "setting": "hPHGDH [2]; at >20 mM NaCl", "result": 30, "unit": "%"}]}, {"smiles": "N[C@H](CO)C(=O)O", "note": "[D-serine]", "values": [{"measurement": "decrease of hPHGDH activity", "setting": "hPHGDH [2]; at 250 mM D-serine", "result": "~ 25%"}]}, {"smiles": "O=C(O)C(O)COP(=O)(O)O", "note": "[3PG, D-3-phosphoglycerate]", "values": [{"measurement": "Hill coefficient n", "setting": "hPHGDH [3]; negative cooperativity in a previous work", "result": "0.63–0.67"}, {"measurement": "maximal rate of Michaelis–Menten fit (numerator of y = a x/(b + x))", "setting": "hPHGDH [1]; 3PG varied, 120 µM NAD+, PSAT-coupled assay, Figure S3A", "result": 1.282}, {"measurement": "maximal rate of Michaelis–Menten fit", "setting": "hPHGDH [1]; 3PG varied, 120 µM NAD+, hydrazine assay, Figure S3A", "result": 1.5348}, {"measurement": "kcat", "setting": "hPHGDH [1]; forward reaction, substrate varied, 120 µM NAD^+, PSAT-coupled (1) and hydrazine (2) assays, 37 °C, 25 mM Hepes pH 7.0, per monomer", "result": 1.5, "unit": "s⁻¹"}, {"measurement": "Km", "setting": "hPHGDH [1]; forward reaction, substrate varied, 120 µM NAD^+, PSAT-coupled (1) and hydrazine (2) assays, 37 °C, pH 7.0", "result": 260, "unit": "µM"}, {"measurement": "maximal rate of Michaelis–Menten fit", "setting": "hPHGDH [1]; [9]", "result": 2.972}]}, {"smiles": "O=C([O-])C(O)C(O)C(=O)[O-].[Na+].[Na+]", "note": "(centres unmarked) [sodium tartrate]", "values": [{"measurement": "proteolysis of the full-length enzyme", "setting": "hPHGDH [4]", "result": "hampered"}]}, {"smiles": "Cc1cc(C)nc(NC(=S)N2CCN(Cc3ccc(C(F)(F)F)cc3)CC2)c1", "note": "[NCT-503]", "values": [{"measurement": "mechanism of inhibition", "setting": "hPHGDH [5]", "result": "noncompetitive inhibitor; also recorded: noncompetitive inhibition mechanism"}, {"measurement": "proteolysis of the full-length enzyme", "setting": "hPHGDH [4]", "result": "to a lesser extent"}]}, {"smiles": "[Cl-].[K+]", "note": "[KCl]", "values": [{"measurement": "decrease of hPHGDH activity", "setting": "hPHGDH [2]; at 10 mM KCl, […] NAD+", "result": 40, "unit": "%"}, {"measurement": "initial activity lost", "setting": "hPHGDH [2]; at ≥10 mM KCl", "result": 30, "unit": "%"}]}, {"smiles": "O=P(O)(O)O", "note": "[potassium phosphate]", "values": [{"measurement": "activity lost", "setting": "hPHGDH [2]; at 1 mM potassium phosphate", "result": 30, "unit": "%"}, {"measurement": "effect on enzymatic activity", "setting": "hPHGDH [2]; at 400 mM phosphate", "result": "fully abrogated"}, {"measurement": "proteolysis of the full-length enzyme", "setting": "hPHGDH [4]", "result": "hampered"}]}, {"smiles": "O=C(O)CCC(=O)C(=O)O", "note": "[α-Ketoglutarate]", "values": [{"measurement": "Km", "setting": "hPHGDH [3]; commercial enzyme preparation", "result": "~10000", "unit": "µM"}, {"measurement": "Km", "setting": "E. coli PHGDH", "result": 500, "unit": "µM"}, {"measurement": "Ki", "setting": "hPHGDH [6]; Ki (substrate inhibition), 37 °C, pH 7.0", "result": 13300, "unit": "µM"}, {"measurement": "Ki", "setting": "hPHGDH [6]; Ki of fit with substrate inhibition, Figure S4A,C,D", "result": 13300, "unit": "µM"}]}, {"smiles": "O=C(O)C[C@@H](O)C(=O)O", "note": "[D-Malate]", "values": [{"measurement": "maximal rate of Michaelis–Menten fit", "setting": "hPHGDH [1]; [9]", "result": 0.4351}]}, {"smiles": "C[C@@H](O)C(=O)O", "note": "[D-Lactate]", "values": [{"measurement": "maximal rate of Michaelis–Menten fit", "setting": "hPHGDH [1]; [9]", "result": 5.407}]}, {"smiles": "O=C(O)CC(=O)C(=O)O", "note": "[Oxaloacetate]", "values": [{"measurement": "maximal rate of fit with substrate inhibition", "setting": "hPHGDH [6]; Figure S4A,C,D", "result": 1.7591}]}, {"smiles": "O=C(O)[C@@H](O)[C@H](O)C(=O)O", "note": "[D-Tartrate]", "values": [{"measurement": "maximal rate of Michaelis–Menten fit", "setting": "hPHGDH [1]; [9]", "result": 0.4125}]}, {"smiles": "NC(=O)c1ccc[n+]([C@@H]2O[C@H](COP(=O)(O)OP(=O)(O)OC[C@H]3O[C@@H](n4cnc5c(N)ncnc54)[C@H](O)[C@@H]3O)[C@@H](O)[C@H]2O)c1", "note": "[NAD^+]", "values": [{"measurement": "Kd", "setting": "hPHGDH [7]; Kd (NAD^+; main phase of NADH binding), discussion value", "result": "~130", "unit": "µM"}, {"measurement": "Kd", "setting": "hPHGDH [7]; Kd, quenching of protein fluorescence at 15 °C, 1 μM enzyme, monophasic", "result": 130, "unit": "µM"}, {"measurement": "Tm, circular dichroism signal at 280 nm", "setting": "hPHGDH [8]; 120 µM NAD^+ or 100 µM NADH, protein alone 47.5", "result": 48.2, "unit": "°C"}, {"measurement": "Tm, CD (220 nm)", "setting": "hPHGDH [8]; +120 μM NAD^+ or +100 μM NADH, hPHGDH alone 47.2 ± 0.5", "result": "48.2 ± 1.7", "unit": "°C"}, {"measurement": "Tm, Fluorescence (330 nm)", "setting": "hPHGDH [8]; +120 μM NAD^+ or +100 μM NADH, hPHGDH alone 48.4 ± 2.1", "result": "52.4 °C and 52.4 ± 0.4 °C"}, {"measurement": "maximal rate of Michaelis–Menten fit", "setting": "hPHGDH [1]; NAD+ varied, 2.5 mM 3PG, PSAT-coupled assay, Figure S3C", "result": 2.039}, {"measurement": "maximal rate of Michaelis–Menten fit", "setting": "hPHGDH [1]; NAD+ varied, 2.5 mM 3PG, hydrazine assay, Figure S3C", "result": 2.4118}]}]}
